The values that follow come from US9006269B2, “Azetidine derivatives” (Vernalis (R&D) Ltd., priority 2008, dated 2015).

Series [1] concerns the target rat FAAH protein (30-579) (Rattus norvegicus (Rat), UniProt P97612). Briefly: Rat FAAH inhibition assay (AAMCA fluorescence). Conditions: 3-hour pre-incubation with compound, 120 nM FAAH; read-out: FAAH Rat IC50 (nM) 180 minutes. The series is classed as biochemical. An excerpt:
Rat FAAH Inhibition Assay
Active rat FAAH protein (30-579) was isolated as described in the literature. The coding sequence of amino acids 30-579 of rat FAAH were cloned into the expression vector pET28a to provide an N-terminal His-tag. Following expression, the His-tagged FAAH′ (30-579) was isolated using a method based on Patricelli et al., 1998; Biochemistry vol 37, p 15177 with a combination of chelating sepharose, heparin sepharose and size exclusion chromatography.
FAAH activity was determined by measuring the liberation of the highly fluorescent 7-amino, 4-methyl Coumarin (AMC) generated during hydrolysis of the substrate Arachidonoyl 7-Amino, 4-methyl Coumarin Amide (AAMCA) by FAAH. Inhibition of FAAH activity was determined as a percentage reduction of the fluorescence determined in the absence of compound.
The assay was carried out in black-walled, clear bottom, 384-well plates. 27.5 μl of FAAH protein (in FAAH assay buffer: 50 mM Hepes, 0.01% Triton X-100, 1 mM EDTA, 0.5 mg/ml BSA (fatty-acid-free), pH 8.2) was pre-incubated, at 120 nM, with increasing concentrations of compounds (2.5 μl in 100% DMSO) for 0, 1 or 3 hours at room temperature. 2.5 μl of DMSO was added for ‘total’ controls (100% FAAH activity) and 2.5 μl of URB-597, a known inhibitor of FAAH activity, (at a final, saturating, concentration of 10 μM) was used for ‘non-specific’ controls (0% FAAH activity). 20 μl of 7.5 μM AAMCA substrate (in FAAH assay buffer) was then added to all wells and incubated at room temperature for a further 1.5 hours. Fluorescence was determined at an excitation wavelength of 355 nm and an emission wavelength of 460 nm using a Flexstation plate reader (Molecular Devices, UK). Inhibition of FAAH activity, by the compounds, was determined as the percentage reduction in relative fluorescence units (RFU) compared to the ‘total’ controls (in the absence of compound) minus the ‘non-specific’ controls. IC50 values were determined, from 10-point dose response curves, in XL-Fit using a 4-Parameter Logistic Model (Sigmoidal Dose-Response Model).
The following Table 1 provides the 3-hour incubation results of testing the compounds of Examples 1-4 herein in the above rat FAAH inhibition assay.

Series [2] is described as follows: Plasma concentrations after oral administration in laboratory rats. The series is classed as in vivo, rat.
Another series concerns the target FAAH (Homo sapiens (Human), UniProt O00519). As to the kind of experiment: Intrinsic FAAH inhibitory potency (summary statement). As to conditions: qualitative statement. The series is classed as biochemical.

Structures are written as SMILES.

In general, IC50 refers to the concentration at which inhibition is half-maximal.

FAAH, sequence (O00519 whole entry): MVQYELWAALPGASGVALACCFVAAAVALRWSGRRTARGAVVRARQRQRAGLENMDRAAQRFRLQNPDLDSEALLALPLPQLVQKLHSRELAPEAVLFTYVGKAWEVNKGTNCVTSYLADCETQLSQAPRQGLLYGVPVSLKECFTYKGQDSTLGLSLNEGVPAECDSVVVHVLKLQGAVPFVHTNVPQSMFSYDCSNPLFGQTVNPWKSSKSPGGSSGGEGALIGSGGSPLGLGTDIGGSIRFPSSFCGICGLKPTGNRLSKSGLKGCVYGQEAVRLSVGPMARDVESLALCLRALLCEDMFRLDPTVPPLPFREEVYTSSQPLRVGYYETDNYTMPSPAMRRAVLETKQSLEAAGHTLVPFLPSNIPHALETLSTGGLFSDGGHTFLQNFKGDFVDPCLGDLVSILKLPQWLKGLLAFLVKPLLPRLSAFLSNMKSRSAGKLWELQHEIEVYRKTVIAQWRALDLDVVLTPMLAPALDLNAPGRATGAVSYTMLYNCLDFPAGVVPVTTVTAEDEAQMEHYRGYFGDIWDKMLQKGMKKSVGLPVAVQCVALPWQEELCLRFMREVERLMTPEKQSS
rat FAAH protein (30-579), sequence (P97612 30-579): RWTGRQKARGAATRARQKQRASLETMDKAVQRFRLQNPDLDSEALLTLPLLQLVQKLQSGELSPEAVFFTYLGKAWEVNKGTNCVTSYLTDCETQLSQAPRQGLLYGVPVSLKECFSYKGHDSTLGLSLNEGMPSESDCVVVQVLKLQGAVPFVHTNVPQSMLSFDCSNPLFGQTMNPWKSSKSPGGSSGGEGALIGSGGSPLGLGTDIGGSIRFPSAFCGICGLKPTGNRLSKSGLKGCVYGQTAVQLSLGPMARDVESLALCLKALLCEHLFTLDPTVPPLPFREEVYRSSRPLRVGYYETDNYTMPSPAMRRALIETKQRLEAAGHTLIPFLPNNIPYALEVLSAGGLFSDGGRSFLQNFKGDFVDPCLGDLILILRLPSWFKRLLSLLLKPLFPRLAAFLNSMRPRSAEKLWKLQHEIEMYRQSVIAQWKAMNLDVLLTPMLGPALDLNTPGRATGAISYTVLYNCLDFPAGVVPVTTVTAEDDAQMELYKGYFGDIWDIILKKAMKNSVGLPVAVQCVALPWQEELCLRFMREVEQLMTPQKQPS

As for `O=C(Nc1cccnc1)N1CC(Oc2ccc(-c3ccccc3)cc2)C1` [Example 4, 3-(Biphenyl-4-yloxy)-azetidine-1-carboxylic acid pyridin-3-ylamide], in series [1], the concentration for half-maximal inhibition (IC50) amounted to 67 nM. The “plasma concentrations after oral administration” value in series [2] is “high and prolonged”. In addition, the intrinsic-FAAH inhibitory potency entry at FAAH is given as “good”.
